Reference: publication PMC6792352, “Limited Chemical Structural Diversity Found to Modulate Thyroid Hormone Receptor in the Tox21 Chemical Library” (Environmental Health Perspectives, 2019)
Counter-ions that a name gives are not always drawn.

Test: in vitro
Details: rat, gh3-tre-luc cells

Compound | CC50 at 24 h (AC50 (uM) modified / 1000) | other results
CC(=O)O[C@H]1C(=O)[C@@]2(C)[C@H]([C@H](OC(=O)c3ccccc3)[C@]3(O)C[C@H](OC(=O)[C@H](O)[C@@H](NC(=O)c4ccccc4)c4ccccc4)C(C)=C1C3(C)C)[C@]1(OC(C)=O)CO[C@@H]1C[C@@H]2O [Paclitaxel] | 0.25 µM | 
COP(=O)(OC)C(O)C(Cl)(Cl)Cl (stereo not drawn) [Trichlorfon] |  | CC50 at 24 h (AC50 (uM) modified / 1000, Tox21_110001=Tox21_110843, viability, 1 nM T3 present, 24 h): > 50 µM; CC50 at 24 h (AC50 (uM) modified / 1000, Tox21_110001=Tox21_201607, viability, 1 nM T3 present, 24 h): > 90 µM
N#C/C(=C1/SCC(c2ccccc2Cl)S1)n1ccnc1 (stereo not drawn) [Lanoconazole] | > 50 µM | 
c1cc2c(c(NC3=NCCN3)c1)CCCC2 [Tramazoline tosylate] | > 50 µM | 
CC(=O)O[C@H]1C[C@@H]2CC[C@@H]3[C@H](CC[C@@]4(C)[C@H]3C[C@H]([N+]3(C)CCCCC3)[C@@H]4OC(C)=O)[C@@]2(C)C[C@@H]1[N+]1(C)CCCCC1 [Pancuronium bromide] | > 50 µM | 
CO[C@H]1C[C@H](O[C@H]2[C@H](C)[C@@H](O[C@@H]3O[C@H](C)C[C@H](N(C)C)[C@H]3OC(C)=O)[C@@H](C)C[C@@]3(CO3)C(=O)[C@H](C)[C@@H](OC(C)=O)[C@@H](C)[C@@H](C)OC(=O)[C@@H]2C)O[C@@H](C)[C@@H]1OC(C)=O [Troleandomycin] | > 20 µM | 
O=[N+]([O-])O[C@@H]1CO[C@H]2[C@@H]1OC[C@@H]2O [Isosorbide 5-mononitrate] | > 50 µM | 
COCCl [Chloromethyl methyl ether] |  | CC50 at 24 h (AC50 (uM) modified / 1000, Tox21_110001=Tox21_201575, viability, 1 nM T3 present, 24 h): > 90 µM; CC50 at 24 h (AC50 (uM) modified / 1000, Tox21_110001=Tox21_302939, viability, 1 nM T3 present, 24 h): > 30 µM
CC(Cl)COP(=O)(OCC(C)Cl)OCC(C)Cl (stereo not drawn) [Tris(2-chloropropyl) phosphate] |  | CC50 at 24 h (AC50 (uM) modified / 1000, Tox21_110001=Tox21_302421, viability, 1 nM T3 present, 24 h): > 90 µM
O=[N+]([O-])c1cc(C(F)(F)F)ccc1Cl [1-Chloro-2-nitro-4-(trifluoromethyl)benzene] | > 90 µM | 
CC/C=C\CCOC(C)=O [(3Z)-3-Hexenyl acetate] | > 90 µM | 
C=CCc1cc(OC)c2c(c1)OCO2 [Myristicin] |  | CC50 at 24 h (AC50 (uM) modified / 1000, Tox21_110001=Tox21_200172, viability, 1 nM T3 present, 24 h): > 100 µM
CC(/C=C1\SC(=S)N(CC(=O)O)C1=O)=C\c1ccccc1 [Epalrestat] | 42.6 µM | 
O=C(O)c1ccc(S(=O)(=O)N(Cl)Cl)cc1 [Halazone] | > 90 µM | 
CCCCCCCCSC(=O)Oc1cc(Cl)nnc1-c1ccccc1 [Pyridate] | > 90 µM | 
C[C@H](O)[C@H](O)[C@H]1CNc2nc(N)[nH]c(=O)c2N1 [(6R)-Tetrahydrobiopterin dihydrochloride] | > 50 µM | 
O=C(O)c1ccc(O)c(O)c1 [3,4-Dihydroxybenzoic acid] | > 90 µM | 
O=C(O)/C=C/c1c[nH]cn1 [Urocanic acid] | > 90 µM | 
CSc1nc(NC2CC2)nc(NC(C)(C)C)n1 [Cybutryne] | > 90 µM | 
CCOC(=O)COc1cc(-n2ncc(C(F)(F)F)c(C)c2=O)c(F)cc1Cl [Flufenpyr-ethyl] | > 90 µM | 
CC(=O)Nc1ccc(OC(=O)c2ccccc2OC(C)=O)cc1 [Benorylate] | > 50 µM | 
CCN(CC)C(=O)Nc1ccc(OCC(O)CNC(C)(C)C)c(C(C)=O)c1 (stereo not drawn) [Celiprolol hydrochloride] | > 50 µM | 
NC(=O)c1ccc([N+](=O)[O-])cc1Cl [2-Chloro-4-nitrobenzamide] | > 90 µM | 
COc1cc(CCN)cc(OC)c1OC [Mescaline hydrochloride] | > 100 µM | 
CNc1ccc([N+](=O)[O-])cc1 [N-Methyl-4-nitroaniline] | 54.8 µM | 

Compound | CC50 at 24 h (AC50 (uM) modified / 1000) | other results
CCCCCCCC/C=C\CCCCCCCCN [(Z)-9-Octadecenylamine] | > 50 µM | 
CC(=O)O[C@H]1CC[C@@]2(C)C(=CC[C@H]3[C@@H]4CC[C@H](C(C)=O)[C@@]4(C)CC[C@@H]32)C1 [3beta-Acetoxy-5-pregnene-20-one] | > 50 µM | 
Oc1cc2c(cc1O)[C@@H]1c3ccc(O)c(O)c3OC[C@]1(O)C2 [Hematoxylin] | 69.9 µM | 
C=CCCCCCCCC [1-Decene] | > 90 µM | 
C1CCCCCCCCCCC1 [Cyclododecane] | > 20 µM | 
ClC(Cl)=C(Cl)Cl [Tetrachloroethylene] |  | CC50 at 24 h (AC50 (uM) modified / 1000, Tox21_110001=Tox21_201196, viability, 1 nM T3 present, 24 h): > 90 µM
COc1ccc(Nc2ccccc2)c(C)c1 [4-Methoxy-2-methyl-N-phenylaniline] | > 90 µM | 
CCN(N=O)C(N)=O [1-Ethyl-1-nitrosourea] |  | CC50 at 24 h (AC50 (uM) modified / 1000, Tox21_110001=Tox21_202151, viability, 1 nM T3 present, 24 h): > 90 µM; CC50 at 24 h (AC50 (uM) modified / 1000, Tox21_110001=Tox21_302749, viability, 1 nM T3 present, 24 h): > 60 µM
Nc1ccc(-c2ccc(N)cc2)cc1 [Benzidine] |  | CC50 at 24 h (AC50 (uM) modified / 1000, Tox21_110001=Tox21_202359, viability, 1 nM T3 present, 24 h): > 90 µM
C=C(C)C(=O)OCCCCCCCCCCCC [Dodecyl 2-methylacrylate] | > 90 µM | 
CSc1ccc(C(=O)c2[nH]c(=O)[nH]c2C)cc1 [Enoximone] | > 50 µM | 
CC(=O)Nc1ccccc1 [Acetanilide] | > 90 µM | 
BrCCBr [1,2-Dibromoethane] |  | CC50 at 24 h (AC50 (uM) modified / 1000, Tox21_110001=Tox21_201427, viability, 1 nM T3 present, 24 h): > 90 µM
c1ccc(CNc2ncnc3nc[nH]c23)cc1 [N-Benzyladenine] | > 90 µM | 
COC(=O)N(OC)c1ccccc1COc1ccn(-c2ccc(Cl)cc2)n1 [Pyraclostrobin] | 59.8 µM | 
CC1(C)OC(=O)NC1=O [Dimethadione] | > 90 µM | 
CCCCCC1CCC(=O)O1 (stereo not drawn) [gamma-Nonanolactone] | > 90 µM | 
c1c[nH]cn1 [Imidazole] | > 100 µM | 
CCCCON=O [N-Butylnitrite] |  | CC50 at 24 h (AC50 (uM) modified / 1000, Tox21_110001=Tox21_202927, viability, 1 nM T3 present, 24 h): > 90 µM
CC/C=C/CCCCCCCCCCOC(C)=O [(E)-11-Tetradecen-1-ol acetate] | > 90 µM | 
CC1=CC(=O)NS(=O)(=O)O1 [Acesulfame potassium] | > 90 µM | 
CC(C(=O)O)c1ccc(C2CCCCC2)c2ccccc12 (stereo not drawn) [Quadrisol] | > 50 µM | 
C=CCc1ccc(OC)cc1 [Estragole] | > 90 µM | 
Clc1cc(Cl)c2c(c1)N=C1CCCCCN1C2 [1,3-dichloro-6,7,8,9,10,12-hexahydroazepino[2,1-b]quinazoline hydrochloride (1:1)] | > 50 µM | 
O=C1NC(=O)c2cc([N+](=O)[O-])ccc21 [4-Nitrophthalimide] | > 90 µM | 

Compound | CC50 at 24 h (AC50 (uM) modified / 1000) | other results
Cc1cccc(C)c1NC(=O)c1cc(S(N)(=O)=O)c(Cl)cc1O [Xipamide] | > 50 µM | 
C=CC(=O)OCCC(=O)O [2-Carboxyethyl acrylate] | > 100 µM | 
CCCCCCCCCCCCCBr [1-Bromotridecane] | > 90 µM | 
Sc1ccccc1 [Benzenethiol] | > 90 µM | 
CCCC(=O)CC [3-Hexanone] | > 90 µM | 
CN(C)C(=O)CCSC(SCCC(=O)O)c1cccc(/C=C/c2ccc3ccc(Cl)cc3n2)c1 (stereo not drawn) [MK-571 sodium] | 28.9 µM | 
CCCCO [1-Butanol] | > 90 µM | 
NNc1ccc(C(=O)O)cc1 [4-Hydrazinobenzoic acid] | > 90 µM | 
CCCCCCCCCCCCc1ccccc1 [Dodecylbenzene] | > 90 µM | 
CC(C)(COP(=O)(O)OP(=O)(O)OC[C@H]1O[C@@H](n2cnc3c(N)ncnc32)[C@H](O)[C@@H]1OP(=O)(O)O)C(O)C(=O)NCCC(=O)NCCS (stereo partly drawn) [Coenzyme A trilithium dihydrate] | > 50 µM | 
O=C(/C=C/c1ccccc1)OCCc1ccccc1 [2-Phenylethyl 3-phenylprop-2-enoate] | > 90 µM | 
Brc1ccc(Oc2cc(Br)c(Br)cc2Br)c(Br)c1 [2,2',4,4',5-Pentabromodiphenyl ether] |  | CC50 at 24 h (AC50 (uM) modified / 1000, Tox21_110001=Tox21_200156, viability, 1 nM T3 present, 24 h): > 90 µM
CC(C)(c1ccccc1)c1cc(-n2nc3ccccc3n2)c(O)c(C(C)(C)c2ccccc2)c1 [2-(2H-Benzotriazol-2-yl)-4,6-bis(1-methyl-1-phenylethyl)phenol] | > 50 µM | 
O=C1OC(=O)c2c(Br)c(Br)c(Br)c(Br)c21 [Tetrabromophthalic anhydride] | > 90 µM | 
CCN(CC)CC1CCCCN1CC(=O)N1c2ccccc2C(=O)Nc2cccnc21 (stereo not drawn) [AF-DX 116] | > 50 µM | 
C=C1CC[C@@]2(O)[C@H]3Cc4ccc(O)c5c4[C@@]2(CCN3CC2CC2)[C@H]1O5 [Nalmefene] | > 50 µM | 
CC(C)N1C(=O)N(c2ccccc2)CS/C1=N\C(C)(C)C [Buprofezin] | 45.1 µM | 
CCCCCCOC(=O)C(C)CC (stereo not drawn) [Hexyl 2-methylbutanoate] | > 90 µM | 
C=CC(=C)C [Isoprene] | > 90 µM | 
C=CC[C@@H]1/C=C(\C)C[C@H](C)C[C@H](OC)[C@H]2O[C@@](O)(C(=O)C(=O)N3CCCC[C@H]3C(=O)O[C@H](/C(C)=C/[C@@H]3CC[C@@H](O)[C@H](OC)C3)[C@H](C)[C@@H](O)CC1=O)[C@H](C)C[C@@H]2OC [Tacrolimus] | > 50 µM | 
c1ccc2c(c1)[nH]c1cnccc12 [Norharman] | > 90 µM | 
CCC1COC(=O)O1 (stereo not drawn) [Butylene carbonate] | > 90 µM | 
C[C@H]1[C@@H](c2ccccc2)NC(=O)N1C [(4R,5S)-(-)-1,5-Dimethyl-4-phenyl-2-imidazolidinone] | > 90 µM | 
NCCS [Cysteamine hydrochloride] | > 50 µM | 
C[C@@H](N)C(=O)O [D-Alanine] | > 50 µM | 
